{"source": "paper PMC3961306", "about": "“Comparison of the Cancer Gene Targeting and Biochemical Selectivities of All Targeted Kinase Inhibitors Approved for Clinical Use” (PLoS ONE, 2014)", "key": {"[1]": {"test_system": "forty-four human cancer cell lines", "test": "Cell proliferation assay (ATPlite, 72 hours) in the 44 cell line Oncolines panel", "assay_type": "cell-based", "details": "Homo sapiens"}, "[2]": {"target": "T1, panel of more than 300 wild-type and mutant kinases (313 kinase panel) (Homo sapiens, UniProt O14920)", "T1 sequence (O14920 1-756)": "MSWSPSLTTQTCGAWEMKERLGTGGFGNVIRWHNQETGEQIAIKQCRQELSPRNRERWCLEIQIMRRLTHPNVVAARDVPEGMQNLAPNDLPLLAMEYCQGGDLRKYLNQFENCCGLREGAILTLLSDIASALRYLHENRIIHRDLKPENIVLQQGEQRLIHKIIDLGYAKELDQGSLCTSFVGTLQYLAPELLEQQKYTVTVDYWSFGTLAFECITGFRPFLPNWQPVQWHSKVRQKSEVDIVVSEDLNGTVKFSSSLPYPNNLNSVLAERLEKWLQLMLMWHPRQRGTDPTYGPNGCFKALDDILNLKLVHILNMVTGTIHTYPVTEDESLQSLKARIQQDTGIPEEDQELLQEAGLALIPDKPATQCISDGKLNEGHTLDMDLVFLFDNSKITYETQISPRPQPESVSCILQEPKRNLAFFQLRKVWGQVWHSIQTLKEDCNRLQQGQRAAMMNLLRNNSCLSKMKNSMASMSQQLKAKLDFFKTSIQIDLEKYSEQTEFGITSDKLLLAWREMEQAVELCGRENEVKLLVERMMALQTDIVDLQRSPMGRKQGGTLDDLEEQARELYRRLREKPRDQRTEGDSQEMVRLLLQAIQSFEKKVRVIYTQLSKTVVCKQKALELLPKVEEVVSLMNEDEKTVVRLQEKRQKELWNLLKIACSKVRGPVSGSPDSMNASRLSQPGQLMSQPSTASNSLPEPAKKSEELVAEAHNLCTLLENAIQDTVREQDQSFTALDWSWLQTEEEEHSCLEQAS", "test": "Kinase profiling in a biochemical assay panel (mobility shift assays and ELISA), %-inhibition at 1 μM; selectivity entropy", "details": "kinase IKKβ; compound at 1 μM"}, "[3]": {"target": "panel of more than 300 wild-type and mutant kinases (313 kinase panel) (Homo sapiens, UniProt Q9H1R3)", "test": "Kinase profiling in a biochemical assay panel (mobility shift assays and ELISA), %-inhibition at 1 μM; selectivity entropy", "details": "kinase skMLCK; 1 μM"}, "[4]": {"target": "panel of more than 300 wild-type and mutant kinases (313 kinase panel) (Homo sapiens, UniProt Q13177)", "test": "Kinase profiling in a biochemical assay panel (mobility shift assays and ELISA), %-inhibition at 1 μM; selectivity entropy", "details": "kinase PAK2; 1 μM"}, "[5]": {"target": "panel of more than 300 wild-type and mutant kinases (313 kinase panel) (Homo sapiens, UniProt Q15303)", "sequence (Q15303 26-1308, change not shown)": "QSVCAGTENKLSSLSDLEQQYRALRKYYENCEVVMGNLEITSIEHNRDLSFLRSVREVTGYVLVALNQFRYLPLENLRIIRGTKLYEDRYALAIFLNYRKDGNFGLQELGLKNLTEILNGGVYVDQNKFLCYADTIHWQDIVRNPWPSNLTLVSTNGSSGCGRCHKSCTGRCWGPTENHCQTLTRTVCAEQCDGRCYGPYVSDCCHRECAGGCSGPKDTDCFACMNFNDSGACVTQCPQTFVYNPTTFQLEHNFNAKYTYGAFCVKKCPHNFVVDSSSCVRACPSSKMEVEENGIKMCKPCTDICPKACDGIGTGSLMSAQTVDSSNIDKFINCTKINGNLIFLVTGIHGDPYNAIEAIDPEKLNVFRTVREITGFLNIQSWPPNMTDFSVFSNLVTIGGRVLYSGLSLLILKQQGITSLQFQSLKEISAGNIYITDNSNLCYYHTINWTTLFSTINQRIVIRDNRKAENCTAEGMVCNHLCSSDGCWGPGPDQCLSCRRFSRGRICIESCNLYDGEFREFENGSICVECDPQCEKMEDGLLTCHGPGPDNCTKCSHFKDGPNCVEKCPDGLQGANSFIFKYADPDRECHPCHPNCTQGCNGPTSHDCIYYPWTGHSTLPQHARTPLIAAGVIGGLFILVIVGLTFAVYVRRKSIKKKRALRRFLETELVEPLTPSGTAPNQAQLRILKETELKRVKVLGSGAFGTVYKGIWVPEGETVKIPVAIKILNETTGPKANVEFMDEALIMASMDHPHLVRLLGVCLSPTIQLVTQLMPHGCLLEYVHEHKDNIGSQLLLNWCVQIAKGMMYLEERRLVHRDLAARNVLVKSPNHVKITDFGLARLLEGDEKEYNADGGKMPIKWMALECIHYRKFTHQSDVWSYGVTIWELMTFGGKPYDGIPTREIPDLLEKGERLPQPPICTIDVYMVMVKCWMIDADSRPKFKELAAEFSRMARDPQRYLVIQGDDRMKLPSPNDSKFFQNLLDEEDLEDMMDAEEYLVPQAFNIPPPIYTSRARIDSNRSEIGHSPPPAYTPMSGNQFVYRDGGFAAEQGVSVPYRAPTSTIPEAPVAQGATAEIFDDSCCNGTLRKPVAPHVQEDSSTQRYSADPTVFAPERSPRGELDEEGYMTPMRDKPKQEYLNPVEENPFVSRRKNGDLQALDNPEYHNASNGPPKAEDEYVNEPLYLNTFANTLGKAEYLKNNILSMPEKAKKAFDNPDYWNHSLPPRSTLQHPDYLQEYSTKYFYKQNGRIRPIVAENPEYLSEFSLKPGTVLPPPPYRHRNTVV", "test": "Kinase profiling in a biochemical assay panel (mobility shift assays and ELISA), %-inhibition at 1 μM; selectivity entropy", "details": "kinase HER4; compound at 1 μM"}, "[6]": {"target": "T2, panel of more than 300 wild-type and mutant kinases (313 kinase panel) (Homo sapiens, UniProt Q96PF2)", "T2 sequence (Q96PF2 1-358)": "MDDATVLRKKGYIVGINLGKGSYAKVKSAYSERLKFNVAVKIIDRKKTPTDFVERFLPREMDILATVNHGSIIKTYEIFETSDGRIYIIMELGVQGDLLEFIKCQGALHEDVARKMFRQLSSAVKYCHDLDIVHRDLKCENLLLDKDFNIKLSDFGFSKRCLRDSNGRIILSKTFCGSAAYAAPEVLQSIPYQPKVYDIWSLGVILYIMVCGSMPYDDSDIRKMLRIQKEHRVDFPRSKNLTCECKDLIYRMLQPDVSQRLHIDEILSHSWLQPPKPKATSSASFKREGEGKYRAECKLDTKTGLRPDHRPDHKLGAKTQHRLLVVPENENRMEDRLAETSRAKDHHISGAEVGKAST", "test": "Kinase profiling in a biochemical assay panel (mobility shift assays and ELISA), %-inhibition at 1 μM; selectivity entropy", "details": "kinase TSSK2; 1 μM"}, "[7]": {"target": "panel of more than 300 wild-type and mutant kinases (313 kinase panel) (Homo sapiens, UniProt Q16288)", "test": "Kinase profiling in a biochemical assay panel (mobility shift assays and ELISA), %-inhibition at 1 μM; selectivity entropy", "details": "kinase TRKC; 1 μM"}, "[8]": {"target": "panel of more than 300 wild-type and mutant kinases (313 kinase panel) (Homo sapiens, UniProt P29376)", "test": "Kinase profiling in a biochemical assay panel (mobility shift assays and ELISA), %-inhibition at 1 μM; selectivity entropy", "details": "kinase LTK; compound at 1 μM"}, "[9]": {"target": "panel of more than 300 wild-type and mutant kinases (313 kinase panel) (Homo sapiens, UniProt O95819)", "test": "Kinase profiling in a biochemical assay panel (mobility shift assays and ELISA), %-inhibition at 1 μM; selectivity entropy", "details": "kinase HGK; compound at 1 μM"}, "[10]": {"target": "panel of more than 300 wild-type and mutant kinases (313 kinase panel) (Homo sapiens, UniProt Q9H2G2)", "test": "Kinase profiling in a biochemical assay panel (mobility shift assays and ELISA), %-inhibition at 1 μM; selectivity entropy", "details": "kinase SLK; 1 μM"}}, "note": "Where two headings read alike, the source gives them in different places.", "data": [{"smiles": "CO[C@H]1C[C@@H]2CC[C@@H](C)[C@@](O)(O2)C(=O)C(=O)N2CCCC[C@H]2C(=O)O[C@H]([C@H](C)C[C@@H]2CC[C@@H](OC(=O)C(C)(CO)CO)[C@H](OC)C2)CC(=O)[C@H](C)/C=C(\\C)[C@@H](O)[C@@H](OC)C(=O)[C@H](C)C[C@H](C)/C=C/C=C/C=C/1C", "note": "[temsirolimus]", "values": [{"measurement": "IC50", "setting": "[1]; A 172, read-out: cell panel IC50, A-172", "value": 10, "unit": "nM"}, {"measurement": "IC50", "setting": "[1]; A204, cell line A-204, read-out: cell panel IC50, A-204", "value": 2470, "unit": "nM"}, {"measurement": "IC50", "setting": "[1]; A498, read-out: cell panel IC50, A-498", "value": 1520, "unit": "nM"}, {"measurement": "IC50", "setting": "[1]; A549, read-out: cell panel IC50, A-549", "value": 746, "unit": "nM"}, {"measurement": "IC50", "setting": "[1]; A-375, cell line A375, read-out: cell panel IC50, A375", "value": "> 3160", "unit": "nM"}, {"measurement": "IC50", "setting": "[1]; A-427, read-out: cell panel IC50, A-427", "value": 96, "unit": "nM"}, {"measurement": "IC50", "setting": "[1]; AU565, read-out: cell panel IC50, AU-565", "value": 63, "unit": "nM"}, {"measurement": "IC50", "setting": "[1]; BT-549, read-out: cell panel IC50, BT-549", "value": 17, "unit": "nM"}, {"measurement": "IC50", "setting": "[1]; HCT-116, read-out: cell panel IC50, HCT-116", "value": 252, "unit": "nM"}, {"measurement": "IC50", "setting": "[1]; K562, read-out: cell panel IC50, K-562", "value": "> 3160", "unit": "nM"}, {"measurement": "IC50", "setting": "[1]; LS174T, read-out: cell panel IC50, LS 174T", "value": 88, "unit": "nM"}, {"measurement": "IC50", "setting": "[1]; SHP77, cell line SHP-77, read-out: cell panel IC50, SHP-77", "value": "> 3160", "unit": "nM"}, {"measurement": "IC50", "setting": "[1]; SW-620, cell line SW620, read-out: cell panel IC50, SW620", "value": "> 3160", "unit": "nM"}, {"measurement": "IC50", "setting": "[1]; U2OS, cell line U-2 OS, read-out: cell panel IC50, U-2 OS", "value": 41, "unit": "nM"}, {"measurement": "IC50", "setting": "[1]; cell line J82, read-out: cell panel IC50, J82", "value": 26, "unit": "nM"}, {"measurement": "IC50", "setting": "[1]; cell line PA-1, read-out: cell panel IC50, PA-1", "value": 1320, "unit": "nM"}, {"measurement": "IC50", "setting": "[1]; cell line SJCRH30, read-out: cell panel IC50, SJCRH30", "value": "> 3160", "unit": "nM"}, {"measurement": "IC50", "setting": "[1]; cell line SR, read-out: cell panel IC50, SR", "value": 8, "unit": "nM"}, {"measurement": "IC50", "setting": "[1]; U-87 MG cell line, ATPlite, 72 hours, read-out: IC50 in cell proliferation assay (table S5 cellpanel data)", "value": 454, "unit": "nM"}, {"measurement": "IC50", "setting": "[1]; cell line 769-P, read-out: cell panel IC50, 769-P", "value": 9, "unit": "nM"}, {"measurement": "IC50", "setting": "[1]; cell line 786-0, read-out: cell panel IC50, 786-0", "value": 428, "unit": "nM"}, {"measurement": "IC50", "setting": "[1]; cell line ACHN, read-out: cell panel IC50, ACHN", "value": "> 3160", "unit": "nM"}, {"measurement": "IC50", "setting": "[1]; cell line AN3 CA, read-out: cell panel IC50, AN3 CA", "value": 792, "unit": "nM"}, {"measurement": "IC50", "setting": "[1]; cell line BT-20, read-out: cell panel IC50, BT-20", "value": 33, "unit": "nM"}, {"measurement": "IC50", "setting": "[1]; cell line BxPC-3, read-out: cell panel IC50, BxPC-3", "value": "> 3160", "unit": "nM"}, {"measurement": "IC50", "setting": "[1]; cell line C-33 A, read-out: cell panel IC50, C-33 A", "value": 34, "unit": "nM"}, {"measurement": "IC50", "setting": "[1]; cell line CAL 27, read-out: cell panel IC50, CAL 27", "value": "> 3160", "unit": "nM"}, {"measurement": "IC50", "setting": "[1]; cell line CCRF-CEM, read-out: cell panel IC50, CCRF-CEM", "value": 15, "unit": "nM"}, {"measurement": "IC50", "setting": "[1]; cell line DLD-1, read-out: cell panel IC50, DLD-1", "value": 127, "unit": "nM"}, {"measurement": "IC50", "setting": "[1]; cell line FaDu, read-out: cell panel IC50, FaDu", "value": "> 3160", "unit": "nM"}, {"measurement": "IC50", "setting": "[1]; cell line HCT-15, read-out: cell panel IC50, HCT-15", "value": 2470, "unit": "nM"}, {"measurement": "IC50", "setting": "[1]; cell line Hs 578T, read-out: cell panel IC50, Hs 578T", "value": 100, "unit": "nM"}, {"measurement": "IC50", "setting": "[1]; cell line Jurkat E6.1, read-out: cell panel IC50, Jurkat E6.1", "value": 122, "unit": "nM"}, {"measurement": "IC50", "setting": "[1]; cell line LoVo, read-out: cell panel IC50, LoVo", "value": "> 3160", "unit": "nM"}, {"measurement": "IC50", "setting": "[1]; cell line MG-63, read-out: cell panel IC50, MG-63", "value": 2220, "unit": "nM"}, {"measurement": "IC50", "setting": "[1]; cell line MOLT-4, read-out: cell panel IC50, MOLT-4", "value": 21, "unit": "nM"}, {"measurement": "IC50", "setting": "[1]; cell line MeWo, read-out: cell panel IC50, MeWo", "value": 19, "unit": "nM"}, {"measurement": "IC50", "setting": "[1]; cell line NCI-H82, read-out: cell panel IC50, NCI-H82", "value": "> 3160", "unit": "nM"}, {"measurement": "IC50", "setting": "[1]; cell line NCI-H460, read-out: cell panel IC50, NCI-H460", "value": 47, "unit": "nM"}, {"measurement": "IC50", "setting": "[1]; cell line OVCAR-3, read-out: cell panel IC50, OVCAR-3", "value": "> 3160", "unit": "nM"}, {"measurement": "IC50", "setting": "[1]; cell line RPMI-7951, read-out: cell panel IC50, RPMI-7951", "value": 1.2, "unit": "nM"}, {"measurement": "IC50", "setting": "[1]; cell line SK-N-AS, read-out: cell panel IC50, SK-N-AS", "value": 238, "unit": "nM"}, {"measurement": "IC50", "setting": "[1]; cell line SW48, read-out: cell panel IC50, SW48", "value": "> 3160", "unit": "nM"}, {"measurement": "IC50", "setting": "[1]; cell line SW480, read-out: cell panel IC50, SW480", "value": 18, "unit": "nM"}, {"measurement": "%-inhibition of IKKβ", "setting": "[2]", "value": -4.44, "unit": "%"}, {"measurement": "%-inhibition of skMLCK", "setting": "[3]", "value": -1.73, "unit": "%"}, {"measurement": "%-inhibition of PAK2", "setting": "[4]", "value": -1.81, "unit": "%"}, {"measurement": "%-inhibition of HER4", "setting": "[5]", "value": -5.46, "unit": "%"}, {"measurement": "%-inhibition of TSSK2", "setting": "[6]", "value": -0.179, "unit": "%"}, {"measurement": "%-inhibition of TRKC", "setting": "[7]", "value": -6.53, "unit": "%"}, {"measurement": "%-inhibition of LTK", "setting": "[8]", "value": -10, "unit": "%"}, {"measurement": "%-inhibition of HGK", "setting": "[9]", "value": -0.299, "unit": "%"}, {"measurement": "%-inhibition of SLK", "setting": "[10]", "value": -4, "unit": "%"}]}]}
